Entries after “also recorded” stand apart in the source; their conditions may differ. Where two headings read alike, the source gives them in different places. Marks after values point to notes of the source that are not given here.
Key:
[1] = test system: REC-1 cells; assay: In vivo mouse xenograft study, REC-1; parameters: species or system mice; details: BTK-I BID alone; BTK WT driven REC-1 (MCL) xenograft
Method: In all studies, test articles are administered alone and in combination, following different dosing regimens.
Human TMD8 BTK WT, TMD8 BTK C481S or REC-1 cells are injected subcutaneously in the right flank of mice. When tumors reach a mean volume between 150 mm^3 and 400 mm^3, mice are randomized based on their tumor volumes. Mice are next dosed for 14 to 23 days depending on the study design. The potencies of the compounds stand-alone or in combination on the inhibition of the tumor growth are assessed based on the tumor volume changes and weights after collection at the end of the study. Additionally, in the TMD8 studies, the plasma concentrations of test articles are measured at multiple time points after the last dose.

[2] = Phase 1/2 clinical study: pharmacokinetics in cancer patients; type: in vivo, human; details: for AUC(0-t) / half-life / Cmax / Tmax / concentration at 0 h / concentration at 1 h / concentration at 2 h / concentration at 4 h / concentration at 8 h / concentration at 24 h: human, plasma, oral; for Cmax: read-out: Cmax Geo mean (% CV); for Tmax: read-out: Tmax Median (min, max); for concentration at 0 h / concentration at 1 h / concentration at 2 h / concentration at 4 h / concentration at 8 h / concentration at 24 h: read-out: Mean patient plasma CONC (SD); for concentration at 24 h: 24 hr (not measured, inferred based on predose)
Excerpt: The study is an open-label, multi-center study of oral BTK-I to evaluate safety and efficacy as monotherapy and as part of combination therapy in patients with CLL/SLL and NHL who have failed or are intolerant to standard of care. This study includes monotherapy as well as combination treatment parts. The monotherapy part includes Phase 1 dose escalation and dose expansion as well as Phase 2. The combination therapy part is a Phase 1b (safety assessment and expansion) of BTK-I in combination with venetoclax, with or without anti-CD20 therapy. Phase 1 dose escalation will proceed prior to start of Phase 1b or Phase 2. Once a recommended Phase 2 dose (RP2D) is identified in Phase 1, enrollment can commence to the Phase 1b combination therapies and Phase 2 monotherapy cohorts.
BTK-I is administered in oral tablet form. Dose escalation will follow a 3+3 design starting with a 25 mg QD dose (followed by 50 mg QD (dose level cohort 2), 100 mg QD (dose level cohort 3), 150 mg QD (dose level cohort 4), 200 mg QD (dose level cohort 5), 250 mg QD (dose level cohort 6), and 300 mg QD (dose level cohort 7)). Cycle length will be 28 days. The drug limiting toxicity (DLT) period will be 28 days, commencing with the first dose of BTK-I.
The pharmacokinetic profiles and adverse events for BTK-I doses are summarized in the below tables.
Pharmacokinetic Parameters of BTK-I—in Cancer Patients at Steady State (Cycle 1 Day 8)

[3] = 250 mg QD, steady state (Cycle 1 Day 8), N=25
[4] = 25 mg QD, steady state (Cycle 1 Day 8), N=5
[5] = 50 mg QD, steady state (Cycle 1 Day 8), N=6
[6] = 100 mg QD, steady state (Cycle 1 Day 8), N=9
[7] = 150 mg QD, steady state (Cycle 1 Day 8), N=20
[8] = 200 mg QD, steady state (Cycle 1 Day 8), N=99
[9] = 300 mg QD, steady state (Cycle 1 Day 8), N=17

Compound: COc1ccc(F)cc1C(=O)NCc1ccc(-c2nn([C@@H](C)C(F)(F)F)c(N)c2C(N)=O)cc1 [BTK-I, (S)-5-amino-3-(4-((5-fluoro-2-methoxybenzamido)methyl)phenyl)-1-(1,1,1-trifluoropropane-2-yl)-1H-pyrazole-4-carboxamide]
- inhibition of xenograft tumor growth [1]: potently inhibited the growth
- Ratio AUC0-8 Day 8/Day 1 Geo mean (% CV) ([2]; 25 mg QD (N = 5)): 1.44 (23.0%)
- CL/F Geo mean (% CV) ([2]; 25 mg QD, steady state (Cycle 1 Day 8), N = 4, % CV 69.6%): 1.55^a (69.6%) L/h
- dose dependence of exposure (Cmax and AUC) ([2]; 25 mg to 300 mg daily): dose-5 dependent and linear increases in BTK-I exposure; also recorded: linear dose-proportional exposures
- interpatient variability of exposure ([2]; 25 mg to 300 mg daily): low interpatient variability
- Ratio AUC0-8 Day 8/Day 1 Geo mean (% CV) ([2]; 50 mg QD (N = 6)): 1.51 (25.9%)
- CL/F Geo mean (% CV) ([2]; 50 mg QD, steady state (Cycle 1 Day 8), N = 5, % CV 36.7%): 2.62^b (36.7%) L/h
- Ratio AUC0-8 Day 8/Day 1 Geo mean (% CV) ([2]; 100 mg QD (N = 9)): 1.88 (42.8%)
- CL/F Geo mean (% CV) ([2]; 100 mg QD, steady state (Cycle 1 Day 8), N = 8, % CV 63.0%): 0.968^c (63.0%) L/h
- Ratio AUC0-8 Day 8/Day 1 Geo mean (% CV) ([2]; 150 mg QD (N = 20)): 1.74 (24.9%)
- T1/2 Geo mean (% CV) ([2]; 150 mg QD, steady state (Cycle 1 Day 8), N = 18, % CV 51.8%): 18.l^d (51.8%)
- CL/F Geo mean (% CV) ([2]; 150 mg QD, steady state (Cycle 1 Day 8), N = 18, % CV 66.7%): 1.36^d (66.7%) L/h
- trough steady-state exposure relative to BTK IC96 ([2]; 200 mg QD): BTK IC96 target coverage
- Ratio AUC0-8 Day 8/Day 1 Geo mean (% CV) ([2]; 200 mg QD, N = 73, % CV 29.6%): 1.69^h (29.6%)^
- CL/F Geo mean (% CV) ([2]; 200 mg QD, steady state (Cycle 1 Day 8), N = 64, % CV 61.8%): 1.14^e (61.8%) L/h
- Ratio AUC0-8 Day 8/Day 1 Geo mean (% CV) ([2]; 250 mg QD (N = 25)): 1.68 (24.5%)
- CL/F Geo mean (% CV) ([2]; 250 mg QD, steady state (Cycle 1 Day 8), N = 21, % CV 1.08%): 1.26^f (1.08%) L/h
- Cmax Geo mean (% CV) [2, 3]: 8100 (28.1%) ng/mL
- Ratio AUC0-8 Day 8/Day 1 Geo mean (% CV) ([2]; 300 mg QD, N=17): 2.15 (31.2%)
- CL/F Geo mean (% CV) ([2]; 300 mg QD, steady state (Cycle 1 Day 8), N = 16, % CV 42.5%): 1.63^g (42.5%) L/h
- AUC(0-t) ([2]; 25 mg, 25 mg QD, steady state (Cycle 1 Day 8), N=5, read-out: AUC0-8 Geo mean (% CV)): 4240 ng·h/mL
- AUC(0-t) ([2]; 25 mg, 25 mg QD, steady state (Cycle 1 Day 8), N=5, read-out: AUC0-24 Geo mean (% CV)): 9800 ng·h/mL
- AUC(0-t) ([2]; 50 mg, 50 mg QD, steady state (Cycle 1 Day 8), N=6, read-out: AUC0-8 Geo mean (% CV)): 8660 ng·h/mL
- AUC(0-t) ([2]; 50 mg, 50 mg QD, steady state (Cycle 1 Day 8), N=6, read-out: AUC0-24 Geo mean (% CV)): 20100 ng·h/mL
- AUC(0-t) ([2]; 100 mg, 100 mg QD, steady state (Cycle 1 Day 8), N=9, read-out: AUC0-8 Geo mean (% CV)): 22000 ng·h/mL
- AUC(0-t) ([2]; 100 mg, 100 mg QD, steady state (Cycle 1 Day 8), N=9, read-out: AUC0-24 Geo mean (% CV)): 52400 ng·h/mL
- AUC(0-t) ([2]; 150 mg, 150 mg QD, steady state (Cycle 1 Day 8), N=20, read-out: AUC0-8 Geo mean (% CV)): 28000 ng·h/mL
- AUC(0-t) ([2]; 150 mg, 150 mg QD, steady state (Cycle 1 Day 8), N=20, read-out: AUC0-24 Geo mean (% CV)): 64400 ng·h/mL
- AUC(0-t) ([2]; 200 mg, 200 mg QD, steady state (Cycle 1 Day 8), N=99, read-out: AUC0-8 Geo mean (% CV)): 36900 ng·h/mL
- AUC(0-t) ([2]; 200 mg, 200 mg QD, steady state (Cycle 1 Day 8), N=99, read-out: AUC0-24 Geo mean (% CV)): 91000 ng·h/mL
- AUC(0-t) ([2]; 250 mg, 250 mg QD, steady state (Cycle 1 Day 8), N=25, read-out: AUC0-8 Geo mean (% CV)): 49700 ng·h/mL
- AUC(0-t) ([2]; 250 mg, 250 mg QD, steady state (Cycle 1 Day 8), N=25, read-out: AUC0-24 Geo mean (% CV)): 111000 ng·h/mL
- AUC(0-t) ([2]; 300 mg, 300 mg QD, steady state (Cycle 1 Day 8), N=17, read-out: AUC0-8 Geo mean (% CV)): 65800 ng·h/mL
- AUC(0-t) ([2]; 300 mg, 300 mg QD, steady state (Cycle 1 Day 8), N=17, read-out: AUC0-24 Geo mean (% CV)): 158000 ng·h/mL
- half-life ([2]; 25 mg QD, steady state (Cycle 1 Day 8), N = 4, % CV 60.1%, read-out: T1/2 Geo mean (% CV) (converted)): 18.2 h
- Cmax [2, 4]: 734 ng/mL
- Tmax [2, 4]: 2 h
- concentration at 0 h ([2]; 25 mg): 263 ng/mL
- concentration at 1 h ([2]; 25 mg): 572 ng/mL
- concentration at 2 h ([2]; 25 mg): 650 ng/mL
- concentration at 4 h ([2]; 25 mg): 538 ng/mL
- concentration at 8 h ([2]; 25 mg): 495 ng/mL
- concentration at 24 h ([2]; 25 mg): 263 ng/mL
- half-life ([2]; 50 mg QD, steady state (Cycle 1 Day 8), N = 5, % CV 39.6%, read-out: T1/2 Geo mean (% CV) (converted)): 17.6 h
- Cmax [2, 5]: 1420 ng/mL
- Tmax [2, 5]: 1.5 h
- concentration at 0 h ([2]; 50 mg): 571 ng/mL
- concentration at 1 h ([2]; 50 mg): 1150 ng/mL
- concentration at 2 h ([2]; 50 mg): 1300 ng/mL
- concentration at 4 h ([2]; 50 mg): 1170 ng/mL
- concentration at 8 h ([2]; 50 mg): 1020 ng/mL
- concentration at 24 h ([2]; 50 mg): 571 ng/mL
- half-life ([2]; 100 mg QD, steady state (Cycle 1 Day 8), N = 8, % CV 33.9%, read-out: T1/2 Geo mean (% CV) (converted)): 22.2 h
- Cmax [2, 6]: 3910 ng/mL
- Tmax [2, 6]: 2 h
- concentration at 0 h ([2]; 100 mg): 1580 ng/mL
- concentration at 1 h ([2]; 100 mg): 2170 ng/mL
- concentration at 2 h ([2]; 100 mg): 3670 ng/mL
- concentration at 4 h ([2]; 100 mg): 2800 ng/mL
- concentration at 8 h ([2]; 100 mg): 2360 ng/mL
- concentration at 24 h ([2]; 100 mg): 1580 ng/mL
- Cmax [2, 7]: 4680 ng/mL
- Tmax [2, 7]: 2 h
- concentration at 0 h ([2]; 150 mg): 1800 ng/mL
- concentration at 1 h ([2]; 150 mg): 3670 ng/mL
- concentration at 2 h ([2]; 150 mg): 4640 ng/mL
- concentration at 4 h ([2]; 150 mg): 3660 ng/mL
- concentration at 8 h ([2]; 150 mg): 3320 ng/mL
- concentration at 24 h ([2]; 150 mg): 1800 ng/mL
- half-life ([2]; 200 mg QD, steady state (Cycle 1 Day 8), N = 64, % CV 56.2%, read-out: T1/2 Geo mean (% CV) (converted)): 19.9 h
- Cmax [2, 8]: 5770 ng/mL
- Tmax [2, 8]: 2 h
- concentration at 0 h ([2]; 200 mg): 2770 ng/mL
- concentration at 1 h ([2]; 200 mg): 4940 ng/mL
- concentration at 2 h ([2]; 200 mg): 6160 ng/mL
- concentration at 4 h ([2]; 200 mg): 5270 ng/mL
- concentration at 8 h ([2]; 200 mg): 4660 ng/mL
- concentration at 24 h ([2]; 200 mg): 2770 ng/mL
- half-life ([2]; 250 mg QD, steady state (Cycle 1 Day 8), N = 21, % CV 50.6%, read-out: T1/2 Geo mean (% CV) (converted)): 17.4 h
- Tmax [2, 3]: 2 h
- concentration at 0 h ([2]; 250 mg): 3160 ng/mL
- concentration at 1 h ([2]; 250 mg): 6910 ng/mL
- concentration at 2 h ([2]; 250 mg): 7870 ng/mL
- concentration at 4 h ([2]; 250 mg): 6840 ng/mL
- concentration at 8 h ([2]; 250 mg): 5500 ng/mL
- concentration at 24 h ([2]; 250 mg): 3160 ng/mL
- half-life ([2]; 300 mg QD, steady state (Cycle 1 Day 8), N = 16, % CV 102%, read-out: T1/2 Geo mean (% CV) (converted)): 30.1 h
- Cmax [2, 9]: 10700 ng/mL
- Tmax [2, 9]: 2 h
- concentration at 0 h ([2]; 300 mg): 5510 ng/mL
- concentration at 1 h ([2]; 300 mg): 9730 ng/mL
- concentration at 2 h ([2]; 300 mg): 10700 ng/mL
- concentration at 4 h ([2]; 300 mg): 8420 ng/mL
- concentration at 8 h ([2]; 300 mg): 7510 ng/mL
- concentration at 24 h ([2]; 300 mg): 5510 ng/mL
- half-life ([2]; patients, read-out: observed half-life (converted)): ~20 h
- target coverage for wild-type and C481S-mutated BTK ([2]; starting at the 50 mg QD dose, estimates from cell-based potencies): delivered >IC90 target coverage

From patent US12551463B2, “Dosing of a Bruton's tyrosine kinase inhibitor” (Loxo Oncology, Inc., priority 2019, dated 2026)
